Calls of active or inactive are those of the source. The calls are words filed in the database; no cut-off is given here.

Experiment [1] deals with A-431. Put plainly: Cell cycle arrest in human A431 cells at 50 to 75 uM after 36 hrs by propidium iodide staining-based flow cytometric analysis. Type of experiment: functional. (In flow cytometry, cells or beads pass a laser one at a time.)
Experiment [2] relates to A-431. In words: Antiproliferative activity against human A431 cells overexpressing ErbB in serum-free medium assessed as cell viability after 48 hrs by WST-1 assay. To be noted: A-431, 48 h. It is filed as functional, cell-based.
In experiment [3] the test system is A-431. In words: Antiproliferative activity against anti-67LR treated human A431 cells overexpressing ErbB assessed as cell viability at 100 to 200 uM after 24 hrs by WST-1 staining-based spectrophotometric analysis. It is filed as functional.
Experiment [4] is described as follows: Downregulation of ErbB2 protein expression in human SKBR3 cells at 50 uM after 24 hrs by immunofluorescence staining-based flow cytometric analysis in presence of serum. It is filed as functional, cell-based. The note with it: SK-BR-3.
Experiment [5] in a line: Downregulation of ErbB2 protein expression in human SKBR3 cells in serum free medium at 50 uM after 24 hrs by immunofluorescence staining-based flow cytometric analysis. It is filed as functional, cell-based. To be noted: SK-BR-3.
The test system of experiment [6] is A-431. In words: Downregulation of ErbB1 protein expression in human A431 cells at 50 uM after 24 hrs by immunofluorescence staining-based flow cytometric analysis in presence of serum. It is filed as functional, cell-based.
Experiment [7] can be described thus: Antiproliferative activity against human SKBR3 cells overexpressing ErbB in serum-free medium assessed as cell viability after 48 hrs by WST-1 assay. Type of experiment: functional, cell-based. To be noted: SK-BR-3, 48 h. On the technique in general: Tetrazolium dyes change colour on reduction, which living cells bring about.
For experiment [8], the system named is SK-BR-3. In words: Reduction of clustering of GFP-GPI in lipid rafts of human SKBR3 cells at 100 uM after 12 hrs by confocal microscopic analysis. Type of experiment: functional, cell-based.
The nature of experiment [9]: Cell cycle arrest in human SKBR3 cells at 50 to 75 uM after 36 hrs by propidium iodide staining-based flow cytometric analysis. Type of experiment: functional. To be noted: SK-BR-3.
Experiment [10] deals with A-431. Put plainly: Downregulation of ErbB1 protein expression in human A431 cells in serum free medium at 50 uM after 24 hrs by immunofluorescence staining-based flow cytometric analysis. It is filed as functional.
Experiment [11] concerns the target Receptor tyrosine-protein kinase erbB-2 (Homo sapiens) (UniProt P04626). In words: Induction of ErbB2 internalization in lysosome/endosome of human A431 cells in serum free medium at 200 uM after 30 mins by immunofluorescence staining-based confocal microscopic analysis. Type of experiment: cell-based. The note with it: A-431.
The nature of experiment [12]: Antiproliferative activity against human SKBR3 cells overexpressing ErbB in complete medium assessed as cell viability after 48 hrs by WST-1 assay. Type of experiment: functional, cell-based. To be noted: SK-BR-3, 48 h.
The nature of experiment [13]: Downregulation of ErbB2 protein expression in human SKBR3 cells in serum free medium at 200 uM after 30 mins by immunofluorescence staining-based confocal microscopic analysis. The note with it: SK-BR-3. It is filed as functional, cell-based.
Experiment [14] deals with Small ribosomal subunit protein uS2 (Homo sapiens) (UniProt P08865). In words: Inhibition of 67LR co-localization in lipid rafts containing cholera toxin labeled GM1 gangliosides in human A431 cells after 30 mins by immunofluorescence-based confocal microscopic analysis (reference value: 75%). It is filed as cell-based. The note with it: A-431.
Experiment [15] has as its system A-431. In words: Reduction of clustering of GFP-GPI in lipid rafts of human A431 cells at 100 uM after 12 hrs by confocal microscopic analysis. Type of experiment: functional, cell-based.
The subject of experiment [16] is A-431. In words: Antiproliferative activity against human A431 cells overexpressing ErbB in complete medium assessed as cell viability after 48 hrs by WST-1 assay. Type of experiment: functional, cell-based. To be noted: A-431, 48 h.
Experiment [17] relates to A-431. In words: Induction of apoptosis in human A431 cells overexpressing ErbB in complete medium assessed as late apoptotic/necrotic cells at 75 uM after 72 hrs by annexin V-FITC/7-AAD staining-based flow cytometric analysis relative to control. Type of experiment: functional.
The test system of experiment [18] is SK-BR-3. In words: Ratio of EC50 for human SKBR3 cells overexpressing ErbB in complete medium to EC50 for human SKBR3 cells overexpressing ErbB in serum-free medium. Type of experiment: functional.
The subject of experiment [19] is A-431. In words: Downregulation of ErbB1 protein expression in human A431 cells in serum free medium at 200 uM after 30 mins by immunofluorescence staining-based confocal microscopic analysis. Type of experiment: functional, cell-based.
Experiment [20] deals with A-431. In words: Ratio of EC50 for human A431 cells overexpressing ErbB in complete medium to EC50 for human A431 cells overexpressing ErbB in serum-free medium. It is filed as functional.
In experiment [21] the test system is SK-BR-3. In words: Induction of apoptosis in human SKBR3 cells overexpressing ErbB in complete medium assessed as late apoptotic/necrotic cells at 75 uM after 72 hrs by annexin V-FITC/7-AAD staining-based flow cytometric analysis relative to control. Type of experiment: functional.
In experiment [22] the target is Receptor tyrosine-protein kinase erbB-2 (Homo sapiens) (UniProt P04626). In words: Induction of ErbB2 internalization in lysosome/endosome of human SKBR3 cells in serum free medium at 200 uM after 30 mins by immunofluorescence staining-based confocal microscopic analysis. Type of experiment: cell-based. To be noted: SK-BR-3.
Experiment [23] relates to A-431. Put plainly: Induction of apoptosis in human A431 cells overexpressing ErbB in complete medium assessed as late apoptotic/necrotic cells at 50 to 75 uM after 72 hrs by annexin V-FITC/7-AAD staining-based flow cytometric analysis. Type of experiment: functional, cell-based.
Experiment [24] deals with A-431. In words: Cell cycle arrest in human A431 cells assessed as accumulation at G2/M phase at 50 to 75 uM after 36 hrs by propidium iodide staining-based flow cytometric analysis relative to control. Type of experiment: functional.
The nature of experiment [25]: Cell cycle arrest in human SKBR3 cells assessed as accumulation at G2/M phase at 50 to 75 uM after 36 hrs by propidium iodide staining-based flow cytometric analysis relative to control. Type of experiment: functional. The note with it: SK-BR-3.
Experiment [26] deals with SK-BR-3. Put plainly: Induction of apoptosis in human SKBR3 cells overexpressing ErbB in complete medium assessed as late apoptotic/necrotic cells at 50 to 75 uM after 72 hrs by annexin V-FITC/7-AAD staining-based flow cytometric analysis. It is filed as functional, cell-based.
Experiment [27] has as its system A-431. Put plainly: Cell cycle arrest in human A431 cells assessed as decrease in accumulation at G0/G1 phase at 50 to 75 uM after 36 hrs by propidium iodide staining-based flow cytometric analysis. It is filed as functional.
A short description of experiment [28]: Cell cycle arrest in human SKBR3 cells assessed as decrease in accumulation at G0/G1 phase at 50 to 75 uM after 36 hrs by propidium iodide staining-based flow cytometric analysis. It is filed as functional. The note with it: SK-BR-3.

Chain of Receptor tyrosine-protein kinase erbB-2 (Homo sapiens) (P04626 whole entry): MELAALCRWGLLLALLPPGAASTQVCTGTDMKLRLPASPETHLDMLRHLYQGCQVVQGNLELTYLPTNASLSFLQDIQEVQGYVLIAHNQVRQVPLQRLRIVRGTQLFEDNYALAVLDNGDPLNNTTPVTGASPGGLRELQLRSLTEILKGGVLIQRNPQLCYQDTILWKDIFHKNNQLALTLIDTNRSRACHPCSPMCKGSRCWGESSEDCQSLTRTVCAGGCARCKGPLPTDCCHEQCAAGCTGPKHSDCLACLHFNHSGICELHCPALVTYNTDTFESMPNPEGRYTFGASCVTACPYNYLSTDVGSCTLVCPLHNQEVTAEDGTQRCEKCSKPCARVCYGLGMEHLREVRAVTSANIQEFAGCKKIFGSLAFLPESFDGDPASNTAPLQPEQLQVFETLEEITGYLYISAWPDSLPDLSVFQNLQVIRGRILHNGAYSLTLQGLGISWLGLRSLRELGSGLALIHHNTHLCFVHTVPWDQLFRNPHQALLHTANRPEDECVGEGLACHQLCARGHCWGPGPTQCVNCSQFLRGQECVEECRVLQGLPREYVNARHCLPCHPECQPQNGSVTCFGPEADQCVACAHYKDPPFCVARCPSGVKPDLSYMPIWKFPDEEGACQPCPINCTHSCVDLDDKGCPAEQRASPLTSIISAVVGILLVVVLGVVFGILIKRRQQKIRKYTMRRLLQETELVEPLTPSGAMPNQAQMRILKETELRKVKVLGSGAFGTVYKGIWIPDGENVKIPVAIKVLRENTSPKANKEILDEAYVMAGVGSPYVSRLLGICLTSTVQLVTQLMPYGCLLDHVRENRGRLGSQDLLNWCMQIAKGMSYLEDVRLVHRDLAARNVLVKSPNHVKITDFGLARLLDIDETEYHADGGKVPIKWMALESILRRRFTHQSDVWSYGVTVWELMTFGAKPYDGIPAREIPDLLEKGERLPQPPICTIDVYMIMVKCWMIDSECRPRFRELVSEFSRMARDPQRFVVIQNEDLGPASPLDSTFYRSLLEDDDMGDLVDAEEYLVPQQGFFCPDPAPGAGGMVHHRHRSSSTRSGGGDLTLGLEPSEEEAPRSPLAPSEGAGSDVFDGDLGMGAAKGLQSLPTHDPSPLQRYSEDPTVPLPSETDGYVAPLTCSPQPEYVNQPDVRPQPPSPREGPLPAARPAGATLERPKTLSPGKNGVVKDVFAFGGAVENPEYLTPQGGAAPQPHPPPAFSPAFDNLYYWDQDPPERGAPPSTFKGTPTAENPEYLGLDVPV

As a reminder, the EC50 is the midpoint of the concentration-response curve. As a reminder, the inhibition is the drop in the measured response relative to a control, in per cent. As for `O=C(O[C@@H]1Cc2c(O)cc(O)cc2O[C@@H]1c1cc(O)c(O)c(O)c1)c1cc(O)c(O)c(O)c1` [EPIGALOCATECHIN GALLATE], the outcome (in the experiment with A-431 [1]; in the experiment on A-431 [3]; in experiment [4]; in the experiment on A-431 [6]; in experiment [9]) was inactive. For the same compound, the EC50 with A-431 [2] was determined as 38 µM; in [7] it was 100 µM; in experiment [12], 195 µM; in the experiment with A-431 [16], 266 µM. The Activity in experiment [5] was found to be 30%; in the experiment with A-431 [10], 30%; in the experiment on A-431 [17] it was 80%; in the experiment with SK-BR-3 [21] it was 40%. For the same compound, the result (with SK-BR-3 [8]; in experiment [11]; in experiment [13]; in the experiment on A-431 [15]; in the experiment on A-431 [19]; in experiment [22]) was Active. This compound returned an inhibition in experiment [14] of 47%. Besides, the “Ratio EC50” value in the experiment on SK-BR-3 [18] and in the experiment on A-431 [20] was 2 in each case.
For the compound `O=c1c(-c2ccc(O)cc2)coc2cc(O)cc(O)c12` [GENISTEIN], the result (with A-431 [23]; in the experiment with A-431 [24]; with A-431 [27]; in experiment [28]) was Active. In addition, the EC50 stood at 108 µM in the experiment on A-431 [2], 97 µM in [7], 403 µM in experiment [12] and 278 µM in the experiment with A-431 [16]. The Activity in experiment [25] was 50%. Also, the result (in the experiment with SK-BR-3 [26]; in [5]; in the experiment on SK-BR-3 [8]; with A-431 [10]; in the experiment on A-431 [15]) was inactive. Further, the “Ratio EC50” value in the experiment with SK-BR-3 [18] and in the experiment with A-431 [20] was 2 in each case.

The values are drawn from ChEMBL document CHEMBL3108760, “Epigallocatechin 3-O-gallate induces 67 kDa laminin receptor-mediated cell death accompanied by downregulation of ErbB proteins and altered lipid raft clustering in mammary and epidermoid carcinoma cells” (J Nat Prod, 2014).
